# How the values were obtained:
# [1] = crystalline form at −20° C.; cited from earlier work
# [2] = target: cannabinoid receptor type 1 (CB1) (Homo sapiens, UniProt P21554); settings: cited from earlier work
# [3] = target: peripheral cannabinoid receptor type 2 (CB2) (Homo sapiens, UniProt P34972); settings: cited from earlier work
# [4] = cited from earlier work
# [5] = cited from earlier work; remark: listed apart in the source
# [6] = Acute oral toxicity (LD50) in rats; assay type: in vivo, rat
# [7] = vapor phase, estimated, cited from earlier work
# Chain of peripheral cannabinoid receptor type 2 (CB2) (P34972 whole entry, species assumed): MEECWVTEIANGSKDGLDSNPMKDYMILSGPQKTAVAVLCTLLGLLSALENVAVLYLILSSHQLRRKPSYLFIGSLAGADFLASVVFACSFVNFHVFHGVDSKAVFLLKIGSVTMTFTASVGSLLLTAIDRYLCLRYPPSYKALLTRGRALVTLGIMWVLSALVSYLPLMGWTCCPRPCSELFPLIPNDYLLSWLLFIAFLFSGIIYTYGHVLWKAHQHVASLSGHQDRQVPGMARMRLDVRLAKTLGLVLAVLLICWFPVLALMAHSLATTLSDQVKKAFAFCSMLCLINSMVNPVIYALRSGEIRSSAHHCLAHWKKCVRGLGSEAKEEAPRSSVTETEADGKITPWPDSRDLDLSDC
# Chain of cannabinoid receptor type 1 (CB1) (P21554 whole entry, species assumed): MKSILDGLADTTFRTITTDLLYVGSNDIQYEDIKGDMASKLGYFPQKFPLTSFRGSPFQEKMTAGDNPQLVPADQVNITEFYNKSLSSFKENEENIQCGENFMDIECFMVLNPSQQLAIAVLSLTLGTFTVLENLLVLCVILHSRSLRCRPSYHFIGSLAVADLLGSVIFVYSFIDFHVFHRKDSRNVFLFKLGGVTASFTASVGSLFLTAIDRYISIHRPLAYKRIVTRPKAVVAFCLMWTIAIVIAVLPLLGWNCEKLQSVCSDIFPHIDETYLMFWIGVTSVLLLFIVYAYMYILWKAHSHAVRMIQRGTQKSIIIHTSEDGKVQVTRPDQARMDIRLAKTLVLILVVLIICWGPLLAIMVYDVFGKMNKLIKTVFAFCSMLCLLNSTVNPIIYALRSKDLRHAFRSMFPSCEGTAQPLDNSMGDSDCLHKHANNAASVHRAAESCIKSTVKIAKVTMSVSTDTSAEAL
smiles,measurement,setting,value
"CCCCCC(C)(C)c1ccc([C@H]2CCC[C@@H](O)C2)c(O)c1 (relative stereo) [cp 47,497-C6-homolog, cis-5-(1,1 dimethylhexyl)-2-(3-hydroxycyclohexyl)-phenol]",long term storage stability,[1],stable for at least two years
same,affinity for CB1,[2],has affinity
same,affinity for CB2,[3],has affinity
same,solubility in DMF,[4]; DMF,approximately 10 mg/ml
same,solubility in DMSO,[4]; DMSO,~15 mg/mL
same,solubility in aqueous solutions,[4]; aqueous solutions,sparingly soluble
same,solubility in ethanol,[4]; ethanol,approximately 10 mg/ml
same,solubility in methanol,[4]; methanol,approximately 12.5 mg/ml
"OCC(O)CO [Vegetable glycerin, glycerol]",LD50 oral rat dosage,[5]; MSDS,"12,600 milligrams per kilogram of body weight"
same,LD50 oral rat dosage converted per pound,[6]; conversion of the rat oral LD50,approximately 5.7 grams per pound of body weight
same,LD50 oral rat dosage converted for a 180 pound male,[6]; for a 180 pound male,36 ounces
"C=CC(=C)CCC=C(C)C [myrcene, beta-myrcene]","half-life in air, reaction with nitrate radicals",[7]; nitrate radicals,4 min
same,"half-life in air, reaction with ozone",[7]; ozone,34 min
same,"half-life in air, reaction with hydroxyl radicals",[7]; photochemically-produced hydroxyl radicals,108 min
CCO [ethyl (grain) alcohol],acute oral toxicity (LD50) in rats,[5]; rat,about 7060 mg/kg
